Laboratory results published in patent publication US8288389B2, “Piperazine derivative having affinity for the histamine H3 receptor” (Glaxo Group Limited, priority 2007, dated 2012).
Structures can show the parent of a compound that is named as a salt.

Assays:
[1] = Preliminary HCl-salt-formation and crystallisation experiments (relative stability of crystal forms); type: physicochemical; conditions: compared with crystalline Form 1
Source text: Crystalline Form 1 (or a predominance of crystalline Form 1) is often formed initially depending on the conditions, but, depending on the conditions (such as the type of solvent and the solubility of crystalline Form 1 in it, and/or the temperature and/or temperature time course, and/or the contact time of the crystalline Form 1 with the solvent), the crystalline Form 1 can then often convert to crystalline Form 2 to a greater or lesser extent when in contact with a suitable solvent i.e. a solvent suitable for converting crystalline Form 1 to crystalline Form 2.

Sprague Dawley rats = experiment: Toxicity Study 2: 7-day oral dose range-finding study in Sprague Dawley rats; type: in vivo, rat
Experimental: Three male rats and three female rats were added at 600 mg/kg/day and 3 female rats were added at 300 mg/kg/day for toxicokinetic evaluation.
The following endpoints/parameters were evaluated for toxicology animals: clinical observations, body weights, food consumption, selected haematology, selected clinical chemistry, liver weights, and selected macroscopic and microscopic observations. Toxicokinetic evaluation was performed on samples collected on Day 1 (300 and 600 mg/kg/day dosing) and Day 7 (300 mg/kg/day dosing only).

[2] = Plasma clearance in the pig-PET study; type: in vivo, Yorkshire-Landrace pig; conditions: 50 micrograms/kg i.v.
H3 receptor = H3 receptor (Sus scrofa, UniProt A0A287B9V8); experiment: Pig-PET study with [11C]GSK189254: pig brain H3 receptor occupancy over time and kon-koff limited model; conditions: 50 micrograms/kg i.v.; for koff: iv
H3 receptor, sequence (A0A287B9V8 1-448): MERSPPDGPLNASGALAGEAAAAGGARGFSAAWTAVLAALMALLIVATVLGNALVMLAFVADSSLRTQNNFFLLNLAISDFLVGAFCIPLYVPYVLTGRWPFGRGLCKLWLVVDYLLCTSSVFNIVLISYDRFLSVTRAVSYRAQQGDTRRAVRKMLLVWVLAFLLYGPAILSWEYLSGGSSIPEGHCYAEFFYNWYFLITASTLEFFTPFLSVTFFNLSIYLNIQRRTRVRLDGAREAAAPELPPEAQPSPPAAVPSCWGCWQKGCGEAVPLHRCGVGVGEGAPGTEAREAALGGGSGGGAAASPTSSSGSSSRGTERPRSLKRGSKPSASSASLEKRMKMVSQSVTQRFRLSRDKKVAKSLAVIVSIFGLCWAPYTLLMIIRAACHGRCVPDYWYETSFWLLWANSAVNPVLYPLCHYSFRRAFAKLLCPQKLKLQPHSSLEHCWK

male Sprague Dawley rats = experiment: Toxicity Study 1: 7-day oral repeat-dose study in male Sprague Dawley rats; type: in vivo, rat; conditions: for tolerability: male rats
Experimental: Three male rats were added at each non-zero dose level for toxicokinetic evaluation. All doses and concentrations, including analyte concentration in plasma, are expressed in terms of the parent “free base” compound.
The following endpoints/parameters were evaluated for toxicology animals: clinical observations, body weights, food consumption measurements, selected haematology and selected clinical chemistry results, liver weights, selected macroscopic and microscopic observations, and selected hepatic gene expression analysis. Toxicokinetic evaluation (serial profiling) was performed on samples collected from satellite animals on Days 1 and 7. For male rats dosed at 30 or 100 mg/kg/day, histopathology observations carried out were on kidneys, mesentery and mandibular lymph node only. For male rats dosed at 0 mg/kg/day (control) and 300 mg/kg/day, histopathology observations carried out were on adrenals, brain, heart, kidneys, liver, lung, mandibular lymph node, mesentery, stomach, testes, and thymus (except that mandibular lymph node observations were for 0 mg/kg/day dosed rats only).

rodent models = conditions: five choice task, object recognition, elevated plus maze, acquisition of novel task, passive avoidance; cited from earlier work
histamine H3 receptor = molecular target: T1, histamine H3 receptor (Rattus norvegicus, UniProt Q9QYN8); conditions: following oral administration to the rat; cited from earlier work
T1 construct: from tissue; host or cells: rat cerebral cortex, crude homogenate
T1 sequence (Q9QYN8 whole entry): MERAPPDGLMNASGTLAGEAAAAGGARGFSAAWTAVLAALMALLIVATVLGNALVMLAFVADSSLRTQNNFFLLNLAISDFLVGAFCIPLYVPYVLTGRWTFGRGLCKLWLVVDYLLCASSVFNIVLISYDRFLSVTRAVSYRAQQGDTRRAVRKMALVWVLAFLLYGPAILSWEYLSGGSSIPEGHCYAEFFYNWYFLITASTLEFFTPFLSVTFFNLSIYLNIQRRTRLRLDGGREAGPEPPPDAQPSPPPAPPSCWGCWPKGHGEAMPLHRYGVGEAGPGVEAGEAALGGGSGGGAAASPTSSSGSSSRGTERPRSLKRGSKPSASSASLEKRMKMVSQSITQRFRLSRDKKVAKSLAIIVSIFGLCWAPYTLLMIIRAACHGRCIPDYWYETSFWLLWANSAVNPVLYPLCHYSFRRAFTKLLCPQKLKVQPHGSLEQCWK

rats = conditions: certain oral doses; passive avoidance, water maze, object recognition, attentional set shift; cited from earlier work
[3] = average model: derived from average plasma data and average occupancy

Compound: CC(C)N1CCN(C(=O)c2ccc(OC3CCOCC3)cc2)CC1 [Example 3]
- thermodynamic stability of the crystal form [1]: more thermodynamically stable than crystalline Form 1

Compound: CC(C)N1CCN(C(=O)c2ccc(OC3CCOCC3)cc2)CC1.Cl [Example E1]
- tolerability (Sprague Dawley rats; female rats, 300 mg/kg/day oral for 7 days (measured as the free base)): moderately well tolerated
- tolerability (preliminary conclusion from Toxicity Studies 1 and 2) (Sprague Dawley rats; male and female rats, 7 days oral repeat dosing at doses of up to 300 mg/kg/day): well tolerated or moderately well tolerated
- Plasma clearance ([2]; pig 1 (individual study)): 2.9 L/h
- koff (H3 receptor; PIG1, pig, pig 1 (individual study), estimated model parameter): 6.33e-05 s⁻¹
- Kd (koff/kon) (H3 receptor; [3]): 3.37 ng/mL
- Kd (koff/kon) (H3 receptor; mean of the individually estimated parameters, n=3 pigs): 3.35 ng/mL
- reduction in pig brain H3 receptor occupancy over time, as compared to salt B (H3 receptor; n=3 pigs, preliminary measurements): generally faster reduction in pig brain H3 receptor occupancy
- koff (H3 receptor; pig, average model: derived from average plasma data and average occupancy): 0.000152 s⁻¹
- koff (H3 receptor; pig, mean of the individually estimated parameters, n=3 pigs): 0.000243 s⁻¹
- koff (H3 receptor; pig, pig 2 (individual study), estimated model parameter): 0.00019 s⁻¹
- koff (H3 receptor; pig, pig 3 (individual study), estimated model parameter): 0.000477 s⁻¹
- tolerability (male Sprague Dawley rats; 300 mg/kg/day oral for 7 days (measured as the free base)): moderately well tolerated
- tolerability (male Sprague Dawley rats; 30 or 100 mg/kg/day oral for 7 days (measured as the free base)): well tolerated
- food consumption (male Sprague Dawley rats; rat, in vivo, po, 300 mg/kg/day): ca. 0.80 ×pretreatment

Compound: O=C(c1ccc(OCCCc2cnc[nH]2)cc1)C1CC1 [ciproxifan]
- effect in rodent cognition models (rodent models): cognitive enhancing properties

Compound: NC(=NCc1ccc(Cl)cc1)SCCCc1cnc[nH]1 [clobenpropit]
- effect in rodent cognition models (rodent models): cognitive enhancing properties

Compound: S=C(NC1CCCCC1)N1CCC(c2cnc[nH]2)CC1 [thioperamide]
- effect in rodent cognition models (rodent models): cognitive enhancing properties

Compound: CNC(=O)c1ccc(Oc2ccc3c(c2)CCN(C2CCC2)CC3)nc1 [GSK189254]
- [3]R-α-methylhistamine ex vivo binding in the rat cortex (histamine H3 receptor): inhibited
- performance of rats in cognition paradigms (rats): improved performance

Compound: CC(C)N1CCCN(C(=O)c2ccc(OC3CCOCC3)cc2)CC1 [salt B, reference compound]
- Plasma clearance ([2]; average model: derived from average plasma data): 2.9 L/h
- Kd (koff/kon) (H3 receptor; [3]): 1.80 ng/mL

Compound: CC(C)(C)CCC#C[C@@H]1C[C@H]1c1c[nH]cn1 [GT-2331]
- effect in rodent cognition models (rodent models): cognitive enhancing properties
